Target: T1, Bcl-2 protein (Recombinant Human Bcl-2 Protein) (Homo sapiens, UniProt P10415)
T1 construct: purchased Novus NBP2-34889
Assay: Binding evaluation of mixture library compounds to Bcl-2 using AS-MS (affinity selection mass spectrometry)
Details: for ASMS ratio (%) n = 1 / ASMS ratio (%) n = 2: ASMS Ratio(%)=(A−C)/B×100; for ASMS ratio (%) n = 1: replicate n = 1; for ASMS ratio (%) n = 2: replicate n = 2
How it was run: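 Bcl-2 binding is scored from LC/MS signal retained with protein through gel-filtration spin columns, normalised to unfiltered and protein-free controls. Incubation: 20 μM protein, […] per compound, 1 h, 23° C.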

[1] = AS-MS on the mixture of 1200 library compounds
[2] = AS-MS, mixture of 1200 compounds, Bcl-2

T1 sequence (P10415 whole entry): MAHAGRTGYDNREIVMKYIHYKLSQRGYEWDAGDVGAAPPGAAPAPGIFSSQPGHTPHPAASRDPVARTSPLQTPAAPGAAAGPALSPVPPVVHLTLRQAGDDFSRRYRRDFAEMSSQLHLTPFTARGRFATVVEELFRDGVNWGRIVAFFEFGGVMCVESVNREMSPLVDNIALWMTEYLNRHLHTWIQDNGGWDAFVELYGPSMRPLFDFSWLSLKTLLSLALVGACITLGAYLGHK

Compound	ASMS ratio (%) (n = 1)	ASMS ratio (%) (n = 2)	ASMS ratio (%) n = 1 [1]	ASMS ratio (%) n = 2 [1]	further results
CCOc1cncc(-c2cnn(-c3cc(C(=O)N4CCN(c5ccc(C(=O)NS(=O)(=O)C(C)(C)C)nn5)CC4)cc(C(F)(F)F)c3)c2)c1 [B2L022-01, N-tert-Butylsulfonyl-6-[4-[3-[4-(5-ethoxypyridin-3-yl)pyrazol-1-yl]-5-(trifluoromethyl)benzoyl]piperazin-1-yl]pyridazine-3-carboxamide]	0.0%	0.0%			
CCOc1cccc(-c2ccccc2CCC(=O)N2CCN(c3ccc(C(=O)N(CC)CC)cc3)CC2)c1 [B4J033-01, 4-[4-[3-[2-(3-Ethoxyphenyl)phenyl]propanoyl]piperazin-1-yl]-N,N-diethylbenzamide]			0.0%	−0.9%	
CCOc1cccc(-c2ccccc2CN2CCN(c3ccc(C(=O)NCC(F)(F)F)cc3)CC2)c1 [B1K045-01, 4-[4-[[2-(3-Ethoxyphenyl)phenyl]methyl]piperazin-1-yl]-N-(2,2,2-trifluoroethyl)benzamide]					ASMS ratio (%) n = 1 [2]: 1.5%; ASMS ratio (%) n = 2 [2]: −0.1%
CCOc1cncc(-c2ccc(CN3CCN(c4ccc(C(=O)NS(=O)(=O)c5ccc(NCCSc6ccccc6)c(C(F)(F)F)c5)nn4)CC3)c3ccccc23)c1 [B2R092-01, 6-[4-[[4-(5-Ethoxypyridin-3-yl)naphthalen-1-yl]methyl]piperazin-1-yl]-N-[4-(2-phenylsulfanylethylamino)-3-(trifluoromethyl)phenyl]sulfonylpyridazine-3-carboxamide]	16.0%	−1.3%			
CCOc1cccc(-c2ccc(CN3CCN(c4ccc(C(=O)Nc5ccc(OC)cc5)cc4)CC3)c(OC)c2)c1 [B1O053-01, 4-[4-[[4-(3-Ethoxyphenyl)-2-methoxyphenyl]methyl]piperazin-1-yl]-N-(4-methoxyphenyl)benzamide]			2.2%	−1.0%	
CCOc1cccc(-c2ccc(CN3CCN(c4ccc(C(=O)NS(=O)(=O)c5ccc(NCCSc6ccccc6)c(C(F)(F)F)c5)cc4)CC3)cc2F)c1 [B2R051-01, 4-[4-[[4-(3-Ethoxyphenyl)-3-fluorophenyl]methyl]piperazin-1-yl]-N-[4-(2-phenylsulfanylethylamino)-3-(trifluoromethyl)phenyl]sulfonylbenzamide]	12.7%	−1.8%			
4-[4-[[2-(5-Ethoxypyridin-3-yl)phenyl]methyl]piperazin-1-yl]-N-propylbenzamide [B1M041-01]					ASMS ratio (%) n = 1 [2]: 0.7%; ASMS ratio (%) n = 2 [2]: −3.5%
CCOc1cccc(-c2cc(C(=O)N3CCN(c4ccc(C(=O)N(C)CC56CC7CC(CC(C7)C5)C6)nn4)CC3)cc(C(F)(F)F)c2)c1 [B3A017-01, N-(1-Adamantylmethyl)-6-[4-[3-(3-ethoxyphenyl)-5-(trifluoromethyl)benzoyl]piperazin-1-yl]-N-methylpyridazine-3-carboxamide]			6.9%	−6.3%	
CCOc1cncc(-c2ccc(C(C)N3CCN(c4ccc(C(=O)NS(=O)(=O)c5ccc(NCCSc6ccccc6)c(C(F)(F)F)c5)cc4)CC3)cc2)c1 (stereo not drawn) [B2R098-01, 4-[4-[1-[4-(5-Ethoxypyridin-3-yl)phenyl]ethyl]piperazin-1-yl]-N-[4-(2-phenylsulfanylethylamino)-3-(trifluoromethyl)phenyl]sulfonylbenzamide]	9.2%	7.5%			
CCOc1cncc(-c2ccccc2CN2CCN(c3ccc(C(=O)NCC(F)(F)F)cc3)CC2)c1 [B1K046-01, 4-[4-[[2-(5-Ethoxypyridin-3-yl)phenyl]methyl]piperazin-1-yl]-N-(2,2,2-trifluoroethyl)benzamide]					ASMS ratio (%) n = 1 [2]: −0.1%; ASMS ratio (%) n = 2 [2]: 0.5%
CCOc1cccc(-c2cc(C(=O)N3CCN(c4ccc(C(=O)NS(=O)(=O)c5ccc(NCCSc6ccccc6)c([N+](=O)[O-])c5)nn4)CC3)cc(C(C)(C)C)c2)c1 [B2Q015-01, 6-[4-[3-tert-Butyl-5-(3-ethoxyphenyl)benzoyl]piperazin-1-yl]-N-[3-nitro-4-(2-phenylsulfanylethylamino)phenyl]sulfonylpyridazine-3-carboxamide]					ASMS ratio (%) n = 1 (AS-MS, mixture library, Bcl-2): 17.1%; ASMS ratio (%) n = 2 (AS-MS, mixture library, Bcl-2): 13.2%
CCCNC(=O)c1ccc(N2CCN(Cc3ccc(-c4cncc(OCC)c4)cc3OC)CC2)nn1 [B1M100-01, 6-[4-[[4-(5-Ethoxypyridin-3-yl)-2-methoxyphenyl]methyl]piperazin-1-yl]-N-propylpyridazine-3-carboxamide]			0.5%	−1.5%	
CCOc1cncc(-c2ccccc2CCC(=O)N2CCN(c3ccc(C(=O)NS(=O)(=O)CCC(F)(F)F)cc3)CC2)c1 [B2N034-01, 4-[4-[3-[2-(5-Ethoxypyridin-3-yl)phenyl]propanoyl]piperazin-1-yl]-N-(3,3,3-trifluoropropylsulfonyl)benzamide]	−0.2%	1.0%			
CCOc1cncc(-c2ccc(CN3CCN(c4ccc(C(=O)NCC56CC7CC(CC(C7)C5)C6)nn4)CC3)c3ccccc23)c1 [B1A092-01, N-(1-Adamantylmethyl)-6-[4-[[4-(5-ethoxypyridin-3-yl)naphthalen-1-yl]methyl]piperazin-1-yl]pyridazine-3-carboxamide]					ASMS ratio (%) n = 1 [2]: 2.6%; ASMS ratio (%) n = 2 [2]: −2.4%
CCOc1cncc(-c2cc(CN3CCN(c4ccc(C(=O)NCC(F)(F)F)nn4)CC3)cc(C(F)(F)F)c2)c1 [B1K088-01, 6-[4-[[3-(5-Ethoxypyridin-3-yl)-5-(trifluoromethyl)phenyl]methyl]piperazin-1-yl]-N-(2,2,2-trifluoroethyl)pyridazine-3-carboxamide]					ASMS ratio (%) n = 1 [2]: 2.2%; ASMS ratio (%) n = 2 [2]: −0.2%
CCOc1cccc(-c2ccc(C(=O)N3CCN(c4ccc(C(=O)NS(=O)(=O)CCC(F)(F)F)cc4)CC3)cc2C)c1 [B2N025-01, 4-[4-[4-(3-Ethoxyphenyl)-3-methylbenzoyl]piperazin-1-yl]-N-(3,3,3-trifluoropropylsulfonyl)benzamide]	0.0%	0.0%			
CCOc1cncc(-c2ccc(CN3CCN(c4ccc(C(=O)N(C)CC56CC7CC(CC(C7)C5)C6)nn4)CC3)cc2C)c1 [B3A074-01, N-(1-Adamantylmethyl)-6-[4-[[4-(5-ethoxypyridin-3-yl)-3-methylphenyl]methyl]piperazin-1-yl]-N-methylpyridazine-3-carboxamide]			10.7%	−17.2%	
CCOc1cncc(-c2ccc(CN3CCN(c4ccc(C(=O)NS(=O)(=O)CCC(F)(F)F)cc4)CC3)c(OC)c2)c1 [B2N054-01, 4-[4-[[4-(5-Ethoxypyridin-3-yl)-2-methoxyphenyl]methyl]piperazin-1-yl]-N-(3,3,3-trifluoropropylsulfonyl)benzamide]	0.0%	0.0%			
CCOc1cccc(-c2ccc(CN3CCN(c4ccc(C(=O)N(C)CC56CC7CC(CC(C7)C5)C6)cc4)CC3)c3ccccc23)c1 [B3A065-01, N-(1-Adamantylmethyl)-4-[4-[[4-(3-ethoxyphenyl)naphthalen-1-yl]methyl]piperazin-1-yl]-N-methylbenzamide]			0.0%	0.0%	
4-[4-[4-(5-Ethoxypyridin-3-yl)thiophene-2-carbonyl]piperazin-1-yl]-N-propylbenzamide [B1M084-01]			0.0%	0.0%	
CCOc1cccc(C#Cc2ccccc2CN2CCN(c3ccc(C(=O)NCC(F)(F)F)cc3)CC2)c1 [B1K069-01, 4-[4-[[2-[2-(3-Ethoxyphenyl)ethynyl]phenyl]methyl]piperazin-1-yl]-N-(2,2,2-trifluoroethyl)benzamide]					ASMS ratio (%) n = 1 [2]: 3.5%; ASMS ratio (%) n = 2 [2]: −1.4%
CCOc1cccc(C#Cc2cncc(C(=O)N3CCN(c4ccc(C(=O)NS(=O)(=O)C(C)(C)C)nn4)CC3)c2)c1 [B2L009-01, N-tert-Butylsulfonyl-6-[4-[5-[2-(3-ethoxyphenyl)ethynyl]pyridine-3-carbonyl]piperazin-1-yl]pyridazine-3-carboxamide]	0.0%	0.0%			
CCOc1cncc(C#Cc2ccccc2CN2CCN(c3ccc(C(=O)Nc4ccc(OC)cc4)cc3)CC2)c1 [B1O070-01]			8.8%	2.3%	
CCOc1cncc(-c2csc(CN3CCN(c4ccc(C(=O)NS(=O)(=O)c5ccc(NCCSc6ccccc6)c(C(F)(F)F)c5)cc4)CC3)c2)c1 [B2R068-01, 4-[4-[[4-(5-Ethoxypyridin-3-yl)thiophen-2-yl]methyl]piperazin-1-yl]-N-[4-(2-phenylsulfanylethylamino)-3-(trifluoromethyl)phenyl]sulfonylbenzamide]	0.0%	0.0%			

From patent US20240132431A1, “METHOD FOR ALKYLATING ACIDIC FUNCTIONAL GROUP” (Chugai Seiyaku Kabushiki Kaisha, priority 2021, published 2024)
